Measurements reported in ChEMBL document CHEMBL6092194, “Development of membrane-targeting chalcone derivatives as antibacterial agents against multidrug-resistant bacteria” (Eur J Med Chem, 2024).
The source made the active and inactive calls. The rule behind the calls is not given here.

Key:
[1] = test system: Staphylococcus aureus; test: Disruption of preformed biofilm in Staphylococcus aureus ATCC43300 assessed as eradication of biofilm at 32 microg/ml relative to control; assay type: functional; details: dose 32 µg/ml
[2] = test system: Escherichia coli; test: Antibacterial activity against penicillin-susceptible Escherichia coli ATCC25922 by broth microdilution method; assay type: functional
[3] = test system: Staphylococcus aureus; test: Antibacterial activity against Staphylococcus aureus ATCC43300 infected in sepsis mouse model assessed as log reduction in bacterial load in spleen at 5 mg/kg pre-infected with bacteria for 1 hrs followed by compound administration at 12 hrs interval for 2 days relative to control; assay type: functional; details: time 2 day
[4] = test system: Cell membrane; test: Induction of cytoplasmic membrane depolarization in Escherichia coli ATCC25922 assessed as increase in fluorescence intensity measured after 24 mins by DiSC3(5) dye-based fluorescence assay; details: dose 0.5-8 µg/ml
[5] = test system: Staphylococcus aureus; test: Antibacterial activity against Staphylococcus aureus ATCC43300 infected in sepsis mouse model assessed as reduction in liver inflammation at 5 to 10 mg/kg pre-infected with bacteria for 1 hrs followed by compound administration at 12 hrs interval for 2 days by H and E staining based analysis; assay type: functional, organism-based; details: dose 5-10 mg/kg, time 2.0 day
[6] = test system: Escherichia coli; test: Bactericidal activity against Escherichia coli ATCC25922 measured upto 24 hrs by time-kill kinetics assay; assay type: functional, organism-based; details: dose 1-8 µg/ml
[7] = test system: Escherichia coli; test: Antibacterial activity against Escherichia coli ATCC25922 infected in sepsis mouse model assessed as reduction in inflammatory cell infiltration in kidney at 10 mg/kg pre-infected with bacteria for 1 hrs followed by compound administration at 12 hrs interval for 2 days by H and E staining based analysis; assay type: functional, organism-based; details: time 2.0 day
[8] = test system: Staphylococcus aureus; test: Antibacterial activity against Staphylococcus aureus ATCC43300 infected in sepsis mouse model assessed as log reduction in bacterial load in liver at 10 mg/kg pre-infected with bacteria for 1 hrs followed by compound administration at 12 hrs interval for 2 days relative to control; assay type: functional; details: time 2 day
[9] = test system: Staphylococcus aureus; test: Antibacterial activity against Staphylococcus aureus ATCC43300 infected in sepsis mouse model assessed as reduction in inflammatory cell infiltration in spleen at 10 mg/kg pre-infected with bacteria for 1 hrs followed by compound administration at 12 hrs interval for 2 days by H and E staining based analysis; assay type: functional, organism-based; details: time 2.0 day
[10] = test system: Staphylococcus aureus; test: Drug resistance, ratio of MIC for Staphylococcus aureus ATCC43300 measured after 20 passages to MIC for Staphylococcus aureus ATCC43300 measured after first exposure; assay type: functional
[11] = test system: Staphylococcus aureus; test: Antibiofilm activity against Staphylococcus aureus ATCC43300 assessed as inhibition of biofilm formation at 16 microg/ml relative to control; assay type: functional
[12] = test system: Escherichia coli; test: Induction of morphological changes in Escherichia coli ATCC25922 assessed as collapse of cell membrane by scanning electron microscopic analysis; assay type: functional, organism-based
[13] = test system: Staphylococcus aureus; test: Antibacterial activity against Staphylococcus aureus ATCC43300 infected in sepsis mouse model assessed as log reduction in bacterial load in blood at 5 mg/kg pre-infected with bacteria for 1 hrs followed by compound administration at 12 hrs interval for 2 days relative to control; assay type: functional; details: time 2 day
[14] = Selectivity index, ratio of HC50 for hemolytic activity in red blood cells (unknown origin) to MIC for antibacterial activity against penicillin-susceptible Escherichia coli ATCC25922; assay type: toxicity, cell-based, RBC; details: read-out: Selectivity Index
[15] = test system: Staphylococcus aureus; test: Bactericidal activity against Staphylococcus aureus ATCC43300 in presence of 50% plasma; assay type: functional
[16] = test system: Cell membrane; test: Induction of inner membrane permeabilization in Staphylococcus aureus ATCC43300 assessed as fold increase in fluorescence intensity at 8 microg/ml incubated for 20 mins by PI uptake assay relative to negative control; assay type: subcellular; details: dose 8.0 µg/ml
[17] = test system: Staphylococcus aureus; test: Bactericidal activity against Staphylococcus aureus ATCC43300 in presence of 50% serum; assay type: functional
[18] = test system: Staphylococcus aureus; test: Antibacterial activity against erythromycin susceptible Staphylococcus aureus ATCC25923 by broth microdilution assay; assay type: functional
[19] = test system: Escherichia coli; test: Disruption of preformed biofilm in Escherichia coli ATCC25922 assessed as eradication of biofilm at 32 microg/ml relative to control; assay type: functional; details: dose 32 µg/ml
[20] = test system: Staphylococcus aureus; test: Antibacterial activity against Staphylococcus aureus ATCC43300 infected in sepsis mouse model assessed as reduction in kidney inflammation at 5 to 10 mg/kg pre-infected with bacteria for 1 hrs followed by compound administration at 12 hrs interval for 2 days by H and E staining based analysis; assay type: functional, organism-based; details: dose 5-10 mg/kg, time 2.0 day
[21] = test system: Escherichia coli; test: Antibacterial activity against Escherichia coli ATCC25922 infected in sepsis mouse model assessed as reduction in spleen inflammation at 5 to 10 mg/kg pre-infected with bacteria for 1 hrs followed by compound administration at 12 hrs interval for 2 days by H and E staining based analysis; assay type: functional, organism-based; details: dose 5-10 mg/kg, time 2.0 day
[22] = test system: Cell membrane; test: Induction of cytoplasmic membrane depolarization in Staphylococcus aureus ATCC43300 assessed as increase in fluorescence intensity at 0.5 microg/ml measured after 24 mins by DiSC3(5) dye-based fluorescence assay; details: dose 0.5 µg/ml
[23] = Cytotoxicity against human L02 cells by CCK8 assay; assay type: toxicity, cell-based
[24] = test system: Staphylococcus aureus; test: Disruption of preformed biofilm in Staphylococcus aureus ATCC43300 assessed as eradication of biofilm at 8 microg/ml relative to control; assay type: functional; details: dose 8 µg/ml
[25] = test system: Staphylococcus aureus; test: Antibacterial activity against Staphylococcus aureus ATCC43300 infected in sepsis mouse model assessed as reduction in inflammatory cell infiltration in liver at 10 mg/kg pre-infected with bacteria for 1 hrs followed by compound administration at 12 hrs interval for 2 days by H and E staining based analysis; assay type: functional, organism-based; details: time 2.0 day
[26] = test system: Escherichia coli; test: Antibacterial activity against Escherichia coli ATCC25922 infected in sepsis mouse model assessed as reduction in kidney inflammation at 5 to 10 mg/kg pre-infected with bacteria for 1 hrs followed by compound administration at 12 hrs interval for 2 days by H and E staining based analysis; assay type: functional, organism-based; details: dose 5-10 mg/kg, time 2.0 day
[27] = test system: Cell membrane; test: Disruption of cell membrane in Staphylococcus aureus ATCC43300 assessed as appearance of blue fluorescence by DAPI staining based fluorescence microscopic analysis
[28] = test system: Escherichia coli; test: Antibacterial activity against Escherichia coli ATCC25922 infected in sepsis mouse model assessed as log reduction in bacterial load in liver at 5 mg/kg pre-infected with bacteria for 1 hrs followed by compound administration at 12 hrs interval for 2 days relative to control; assay type: functional; details: time 2 day
[29] = test system: Escherichia coli; test: Antibacterial activity against Escherichia coli ATCC25922 infected in sepsis mouse model assessed as reduction in liver damage at 5 to 10 mg/kg pre-infected with bacteria for 1 hrs followed by compound administration at 12 hrs interval for 2 days by H and E staining based analysis; assay type: functional, organism-based; details: dose 5-10 mg/kg, time 2.0 day
[30] = test system: Escherichia coli; test: Antibacterial activity against Escherichia coli ATCC25922 infected in sepsis mouse model assessed as reduction in inflammatory cell infiltration in liver at 10 mg/kg pre-infected with bacteria for 1 hrs followed by compound administration at 12 hrs interval for 2 days by H and E staining based analysis; assay type: functional, organism-based; details: time 2.0 day
[31] = test system: Staphylococcus aureus; test: Antibiofilm activity against Staphylococcus aureus ATCC43300 assessed as inhibition of biofilm formation at 1 microg/ml relative to control; assay type: functional
[32] = Ratio of MBC for Escherichia coli ATCC25922 in presence of 50% plasma to MBC for Escherichia coli ATCC25922 in Mueller Hinton Broth; assay type: functional
[33] = test system: Staphylococcus aureus; test: Induction of morphological changes in Staphylococcus aureus ATCC43300 assessed as disruption of cell membrane by scanning electron microscopic analysis; assay type: functional, organism-based
[34] = test system: Cell membrane; test: Disruption of cell membrane in Staphylococcus aureus ATCC43300 assessed as fold increase in protein leakage at 8 microg/ml relative to control; assay type: subcellular; details: dose 8.0 µg/ml

CCCCCCOc1cc[n+](CCCOc2ccc(/C=C/C(=O)c3ccc(OCCC[n+]4ccc(OCCCCCC)cc4)cc3)cc2)cc1.[Br-].[Br-]
Activity [1]: >35.94%
MIC [2]: 1 µg/mL
log(activity) [3]: 1.02
Activity [4]: Dose-dependent-effect
Activity [5]: Active
Activity [6]: Dose-dependent-effect
Activity [7]: inactive
log(activity) [8]: 2.13
Activity [9]: inactive
Ratio [10]: 4
inhibition at 16 µg/mL [11]: 90.9%
Activity [12]: Active
log(activity) [13]: 0.8
selectivity ratio [14]: 329
MBC [15]: 4 µg/mL
fold change (FC) [16]: 1.5
MBC [17]: 16 µg/mL
MIC [18]: 1 µg/mL
Activity [19]: >49.08%
Activity [20]: Active
Activity [21]: Active
Activity [22]: Not active; Fluorescence Intensity Remained Comparable To Negative Control
CC50 [23]: 25.9 µg/mL
Activity [24]: 20.8%
Activity [25]: inactive
Activity [26]: Active
Activity [27]: Active
log(activity) [28]: 2.52
Activity [29]: Active
Activity [30]: inactive
inhibition at 1 µg/mL [31]: 6.91%
Ratio [32]: <2
Activity [33]: Active
fold change (FC) [34]: 7.5
